Legend:
[1] = tested on: eJSmcp1[pJStari1, pJSxcmcp1]; assay: Swarming of eJSmcp1[pJStari1, pJSxcmcp1] grown with methyl-D-aspartate; assay type: cell-based, E. coli; conditions: grown in the presence vs absence of methyl-D-aspartate; Tar-expressing transformed strain
Protocol: (§1) eJSmcp1[pJStari1, pJSxcmcp1] is grown in the absence and in the presence of methyl-D-aspartate.

[2] = tested on: wild type aspartate responsive control cells; assay: Swarming of wild type control cells grown with methyl-D-aspartate; assay type: cell-based, E. coli; conditions: grown in the presence vs absence of methyl-D-aspartate
Protocol: as §1

For methyl-D-aspartate, the Swarming [1] was “Swarming is seen in the presence of the aspartate but not in its absence” and the Swarming [2] was “same results are seen”.
